A short description of data set [1]: Neurotoxicity in human SH-SY5Y cells assessed as decrease in cell viability at 1 uM after 24 hrs by XTT assay. It is filed as toxicity, cell-based. On the technique in general: Formazan colour is commonly taken as a measure of viable cells.
Data set [2] has as its target Cholinesterase (Equus caballus) (UniProt P81908). Kind of data set: Inhibition of equine serum BuChE using butyrylthiocholine iodide as substrate at 50 uM incubated for 15 mins followed by substrate addition by Ellman's method. On the technique in general: Ellman's reagent forms a yellow product with free thiols.
A further data set has as its target Cholinesterase (Equus caballus, UniProt P81908).
In data set [3] the target is T1, Acetylcholinesterase (Electrophorus electricus, UniProt O42275).
Description: Inhibition of Electrophorus electricus AChE using acetylthiocholine iodide as substrate incubated for 15 mins followed by substrate addition by Ellman's method
Data set [4] can be described thus: cells. The note with it: Homo sapiens, SH-SY5Y, 24 h.
Description: Neuroprotective activity against okadaic acid-induced tau phosphorylation-mediated cell death in human SH-SY5Y cells assessed as increase in cell viability after 24 hrs by XTT assay
Data set [5] can be described thus: cells. The note with it: Homo sapiens, SH-SY5Y, 24 h. This is another data set of the same source.
Description: Neuroprotective activity against oligomycine/rotenone-induced oxidative stress-mediated cell death in human SH-SY5Y cells assessed as increase in cell viability after 24 hrs by XTT assay
The nature of data set [6]: Neurotoxicity in human SH-SY5Y cells assessed as decrease in cell viability at 25 to 50 uM after 24 hrs by XTT assay. The data set is classed as toxicity, cell-based.
Data set [7] relates to HepG2. Kind of data set: Hepatotoxicity in human HepG2 cells assessed as decrease in cell viability at 100 uM after 24 hrs by XTT assay. It is filed as toxicity, cell-based. The note with it: hepg2, 24 h.
The target in data set [8] is T1, Acetylcholinesterase. This is another data set of the same source.
Description: Inhibition of Electrophorus electricus AChE using acetylthiocholine iodide as substrate by Dixon plot analysis
The target in data set [9] is Acetylcholinesterase (Electrophorus electricus) (UniProt O42275). The data set is described as follows: Competitive inhibition of Electrophorus electricus AChE using acetylthiocholine iodide as substrate at 0.001 to 10 uM incubated for 15 mins followed by substrate addition by Lineweaver-Burk reciprocal plot analysis.
The subject of data set [10] is HepG2. The data set is described as follows: Hepatotoxicity in human HepG2 cells assessed as decrease in cell viability at 1 to 100 uM after 24 hrs by XTT assay. It is filed as toxicity, cell-based. The following applies: hepg2, 24 h.
A short description of data set [11]: cells. The following applies: Rattus norvegicus, Sprague-Dawley, Cortical neurone, 3 h.
Description: Neuroprotective activity against NMDA-induced excitotoxicity in Sprague-Dawley rat primary cortical neurons assessed as increase in cell viability after 3 hrs by MTT assay
The subject of data set [12] is HepG2. Kind of data set: Hepatoprotective activity in human HepG2 cells at 1 to 25 uM after 24 hrs by XTT assay. The data set is classed as functional, cell-based.
Data set [13] concerns SH-SY5Y. Kind of data set: Neuroprotective activity against oligomycine/rotenone-induced oxidative stress-mediated cell death in human SH-SY5Y cells assessed as increase in cell viability at 10 uM after 24 hrs by microscopic analysis. It is filed as functional, cell-based.
The subject of data set [14] is SH-SY5Y. The data set is described as follows: Neuroprotective activity against okadaic acid-induced tau phosphorylation-mediated cell death in human SH-SY5Y cells assessed as increase in cell viability at 10 uM after 24 hrs by microscopic analysis. It is filed as functional, cell-based.

Molecules are shown by their SMILES. pEC50, pIC50, pKi: −log10 of the molar value. Activity calls are given as the source filed them. The calls are words filed in the database; no cut-off is given here.

Sequence of Cholinesterase (P81908 whole entry): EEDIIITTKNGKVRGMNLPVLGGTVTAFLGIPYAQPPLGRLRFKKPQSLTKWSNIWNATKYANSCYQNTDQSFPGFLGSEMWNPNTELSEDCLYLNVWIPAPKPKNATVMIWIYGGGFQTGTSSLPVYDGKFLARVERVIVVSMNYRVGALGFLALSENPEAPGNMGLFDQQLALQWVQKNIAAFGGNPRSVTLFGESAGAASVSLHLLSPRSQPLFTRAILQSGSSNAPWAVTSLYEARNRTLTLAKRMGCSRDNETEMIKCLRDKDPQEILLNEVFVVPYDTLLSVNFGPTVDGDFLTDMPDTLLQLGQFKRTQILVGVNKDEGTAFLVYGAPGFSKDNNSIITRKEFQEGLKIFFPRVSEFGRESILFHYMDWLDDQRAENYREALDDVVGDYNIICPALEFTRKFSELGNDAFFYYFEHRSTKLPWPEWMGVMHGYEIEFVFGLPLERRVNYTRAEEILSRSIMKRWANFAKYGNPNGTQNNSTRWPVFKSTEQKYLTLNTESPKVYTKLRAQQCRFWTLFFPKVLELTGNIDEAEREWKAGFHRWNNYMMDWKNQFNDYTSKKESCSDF
Sequence of Cholinesterase (Equus caballus) (P81908 whole entry): as above
T1 sequence (O42275 whole entry): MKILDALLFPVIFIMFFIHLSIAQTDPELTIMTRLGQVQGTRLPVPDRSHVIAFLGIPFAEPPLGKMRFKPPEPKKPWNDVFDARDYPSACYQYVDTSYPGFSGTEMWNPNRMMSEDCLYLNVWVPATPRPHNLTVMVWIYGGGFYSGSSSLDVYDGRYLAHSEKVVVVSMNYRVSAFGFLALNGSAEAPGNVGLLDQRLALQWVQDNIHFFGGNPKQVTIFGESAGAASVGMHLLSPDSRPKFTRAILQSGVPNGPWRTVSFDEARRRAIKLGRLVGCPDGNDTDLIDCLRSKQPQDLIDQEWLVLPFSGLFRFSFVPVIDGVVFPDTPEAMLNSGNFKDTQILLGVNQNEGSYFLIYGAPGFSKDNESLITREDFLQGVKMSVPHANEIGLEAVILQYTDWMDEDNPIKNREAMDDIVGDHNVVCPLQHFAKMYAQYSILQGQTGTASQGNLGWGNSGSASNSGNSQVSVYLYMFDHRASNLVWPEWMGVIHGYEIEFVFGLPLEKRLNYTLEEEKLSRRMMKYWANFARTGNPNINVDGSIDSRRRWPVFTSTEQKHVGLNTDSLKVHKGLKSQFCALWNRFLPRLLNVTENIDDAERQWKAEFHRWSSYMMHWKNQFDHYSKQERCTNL
Sequence of Acetylcholinesterase (Electrophorus electricus) (O42275 24-633 limits assumed): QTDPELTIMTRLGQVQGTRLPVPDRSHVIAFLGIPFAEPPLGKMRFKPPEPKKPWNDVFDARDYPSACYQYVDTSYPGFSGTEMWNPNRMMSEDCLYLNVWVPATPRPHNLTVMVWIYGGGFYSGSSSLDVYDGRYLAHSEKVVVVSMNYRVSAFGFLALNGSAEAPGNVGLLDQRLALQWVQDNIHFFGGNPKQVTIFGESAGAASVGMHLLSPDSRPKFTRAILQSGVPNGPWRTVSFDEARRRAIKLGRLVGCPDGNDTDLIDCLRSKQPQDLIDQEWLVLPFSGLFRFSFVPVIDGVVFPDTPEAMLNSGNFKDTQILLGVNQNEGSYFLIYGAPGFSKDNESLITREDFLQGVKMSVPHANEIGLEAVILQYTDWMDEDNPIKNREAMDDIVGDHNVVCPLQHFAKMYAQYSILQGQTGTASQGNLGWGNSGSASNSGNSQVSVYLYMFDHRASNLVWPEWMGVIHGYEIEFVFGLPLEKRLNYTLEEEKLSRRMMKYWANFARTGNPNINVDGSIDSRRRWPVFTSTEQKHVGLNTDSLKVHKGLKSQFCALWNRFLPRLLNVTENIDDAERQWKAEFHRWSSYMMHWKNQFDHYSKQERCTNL

As to `C/C(=C\Cc1cc(O)cc(Sc2ccccc2C(=O)O)c1O)CCCC(C)CCCC(C)CCCC(C)C` (configuration not stated), the figures for the Activity result (in [1]; in [6]; with HepG2 [7]) were “Non-Toxic”, “Non-Toxic” and “Toxic”, respectively. The compound also came in with an Imax in [2] of 94.3 to 95%. For the same compound, the pIC50 (usually the negative decadic logarithm of the IC50, by convention in mol/L) at Cholinesterase was 4.89; against Acetylcholinesterase [3], 4.86. For the same compound, the pEC50 (in general, the EC50 on a negative log10 scale, so that one unit is a factor of ten) was 5.92 in “cells [4]” and 5.96 in “cells [5]”.

For the compound `CC1=CCC[C@H]2[C@](C)(Cc3cc(O)cc(Sc4ccccc4C(=O)O)c3O)[C@@H](C)CC[C@]12C`, on Acetylcholinesterase [8], the pKi (as a rule, the negative decadic logarithm of the Ki, by convention in mol/L) was 10.23. Besides, the Imax in data set [2] came to 77.5%. In addition, the inhibition entry in [9] is “Active”. Moreover, the pIC50 on Cholinesterase and on Acetylcholinesterase [3] was 4.82 each time.

With `CC(C)=CCC/C(C)=C/CC/C(C)=C/Cc1cc(O)cc(Sc2ccccc2C(=O)O)c1O`, the Activity entry (in data set [1]; in the data set on HepG2 [10]; in data set [6]) was “Non-Toxic” throughout. This compound also had an Imax in data set [2] of 8.4%. The pIC50 against Acetylcholinesterase [3] was 4.74. Also, the pEC50 in the data set “cells [4]” is 6.29; in “cells [5]”, 4.87.

With `COc1ccc2c3c1O[C@H]1C[C@@H](O)C=C[C@@]31CCN(C)C2` [GALANTAMINE], the Activity entry in [1] and in data set [6] was “Non-Toxic” each time. For the same compound, the pEC50 in “cells [11]” was 5.83; in the data set “cells [4]”, 5.71; in “cells [5]”, 5.55.

Turning to `CC(C)=CCC/C(C)=C/Cc1cc(O)cc(Sc2ccccc2C(=O)O)c1O`, the Activity result (in [1]; in the data set with HepG2 [10]; in data set [6]) was “Non-Toxic” each time. For the same compound, in [2], the Imax is 17.8%. Besides, on Acetylcholinesterase [3], the pIC50 was 4.88. Also, the pEC50 in “cells [4]” is 6.66; in the data set “cells [5]”, 5.09.

Take `CC1=CCC[C@H]2[C@](C)(Cc3cc(O)ccc3O)[C@@H](C)CC[C@]12C` [AVAROL]: the Activity entry in data set [1] and in data set [6] was “Non-Toxic” each time. Moreover, at Acetylcholinesterase [3], the pIC50 is 3.54.

As to `CC(C)=CCc1cc(O)cc(Sc2ccccc2C(=O)O)c1O`, the Activity entry (in data set [1]; with HepG2 [10]; in data set [6]) was “Non-Toxic” in each case. At Acetylcholinesterase [8], this compound had a negative-log Ki (pKi) of 9.66. For the same compound, the Imax in [2] was determined as 13.1%. Moreover, in [9], the inhibition result is “Active”. Besides, the pIC50 on Acetylcholinesterase [3] is 5.10. The negative-log EC50 (pEC50) in “cells [4]” was 6.27; in “cells [5]” it was 5.33.

Regarding `CC(C)=CCC/C(C)=C/CC/C(C)=C/CC/C(C)=C/Cc1cc(O)cc(Sc2ccccc2C(=O)O)c1O`, the Activity result (in data set [1]; in the data set on HepG2 [10]; in [6]) was “Non-Toxic” each time. At Acetylcholinesterase [8], this compound had a pKi of 12.23. Moreover, the Imax in data set [2] stood at 60.5%. The inhibition result in data set [9] is “Active”. Also, the results for the pIC50 at Cholinesterase and against Acetylcholinesterase [3] were 4.71 and 5.17, respectively. Also, the result in the data set with HepG2 [12], with SH-SY5Y [13] and with SH-SY5Y [14] was Active. Moreover, the pEC50 in “cells [4]” is 6.82; in “cells [5]”, 6.28.

The values are drawn from ChEMBL document CHEMBL3868581, “Avarol derivatives as competitive AChE inhibitors, non hepatotoxic and neuroprotective agents for Alzheimer's disease” (Eur J Med Chem, 2016).
